Activity calls are given as the source filed them. No cut-off for these calls is given here.
Legend:
[1] = Stability in 1% human serum assessed as full length product after 10 mins; assay type: ADME, cell-free; conditions: read-out: Stability
[2] = target: T1, Toll-like receptor 7 (Homo sapiens) (UniProt Q9NYK1); assay: Activation of human TLR7 expressed in HEK293 cells assessed as increase in NF-kappaB activation at 100 ug/ml by SEAP assay; assay type: cell-based
T1 sequence (whole entry): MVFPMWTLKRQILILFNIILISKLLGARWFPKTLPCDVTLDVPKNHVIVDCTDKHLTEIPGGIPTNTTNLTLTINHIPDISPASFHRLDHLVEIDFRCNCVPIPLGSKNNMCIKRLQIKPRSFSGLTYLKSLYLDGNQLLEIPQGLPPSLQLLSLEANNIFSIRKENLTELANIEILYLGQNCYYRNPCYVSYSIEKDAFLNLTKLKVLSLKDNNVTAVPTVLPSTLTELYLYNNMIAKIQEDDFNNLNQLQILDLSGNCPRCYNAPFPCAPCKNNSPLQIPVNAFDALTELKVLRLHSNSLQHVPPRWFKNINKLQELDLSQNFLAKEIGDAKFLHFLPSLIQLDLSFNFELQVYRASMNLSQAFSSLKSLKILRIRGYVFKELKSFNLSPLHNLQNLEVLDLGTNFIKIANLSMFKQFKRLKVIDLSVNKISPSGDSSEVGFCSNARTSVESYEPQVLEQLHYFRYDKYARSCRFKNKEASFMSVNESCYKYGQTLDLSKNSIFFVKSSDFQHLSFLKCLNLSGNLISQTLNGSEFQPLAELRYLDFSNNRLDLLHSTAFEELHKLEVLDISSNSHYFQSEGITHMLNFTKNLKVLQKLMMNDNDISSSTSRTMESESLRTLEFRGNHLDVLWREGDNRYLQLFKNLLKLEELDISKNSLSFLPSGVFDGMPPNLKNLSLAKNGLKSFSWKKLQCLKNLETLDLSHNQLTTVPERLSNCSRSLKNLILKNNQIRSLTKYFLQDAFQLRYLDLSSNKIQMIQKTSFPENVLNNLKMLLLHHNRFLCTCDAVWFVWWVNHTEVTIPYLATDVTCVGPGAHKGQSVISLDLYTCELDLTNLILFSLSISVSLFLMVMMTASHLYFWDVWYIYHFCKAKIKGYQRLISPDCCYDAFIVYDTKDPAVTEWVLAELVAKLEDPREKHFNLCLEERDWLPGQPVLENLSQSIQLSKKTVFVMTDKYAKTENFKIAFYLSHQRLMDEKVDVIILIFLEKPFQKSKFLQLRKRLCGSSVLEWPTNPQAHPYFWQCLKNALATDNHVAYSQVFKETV

[3] = target: T2, Toll-like receptor 8 (Homo sapiens) (UniProt Q9NR97); assay: Activation of human TLR8 expressed in HEK293 cells assessed as increase in NF-kappaB activation at 100 ug/ml by SEAP assay; assay type: cell-based
T2 sequence (whole entry): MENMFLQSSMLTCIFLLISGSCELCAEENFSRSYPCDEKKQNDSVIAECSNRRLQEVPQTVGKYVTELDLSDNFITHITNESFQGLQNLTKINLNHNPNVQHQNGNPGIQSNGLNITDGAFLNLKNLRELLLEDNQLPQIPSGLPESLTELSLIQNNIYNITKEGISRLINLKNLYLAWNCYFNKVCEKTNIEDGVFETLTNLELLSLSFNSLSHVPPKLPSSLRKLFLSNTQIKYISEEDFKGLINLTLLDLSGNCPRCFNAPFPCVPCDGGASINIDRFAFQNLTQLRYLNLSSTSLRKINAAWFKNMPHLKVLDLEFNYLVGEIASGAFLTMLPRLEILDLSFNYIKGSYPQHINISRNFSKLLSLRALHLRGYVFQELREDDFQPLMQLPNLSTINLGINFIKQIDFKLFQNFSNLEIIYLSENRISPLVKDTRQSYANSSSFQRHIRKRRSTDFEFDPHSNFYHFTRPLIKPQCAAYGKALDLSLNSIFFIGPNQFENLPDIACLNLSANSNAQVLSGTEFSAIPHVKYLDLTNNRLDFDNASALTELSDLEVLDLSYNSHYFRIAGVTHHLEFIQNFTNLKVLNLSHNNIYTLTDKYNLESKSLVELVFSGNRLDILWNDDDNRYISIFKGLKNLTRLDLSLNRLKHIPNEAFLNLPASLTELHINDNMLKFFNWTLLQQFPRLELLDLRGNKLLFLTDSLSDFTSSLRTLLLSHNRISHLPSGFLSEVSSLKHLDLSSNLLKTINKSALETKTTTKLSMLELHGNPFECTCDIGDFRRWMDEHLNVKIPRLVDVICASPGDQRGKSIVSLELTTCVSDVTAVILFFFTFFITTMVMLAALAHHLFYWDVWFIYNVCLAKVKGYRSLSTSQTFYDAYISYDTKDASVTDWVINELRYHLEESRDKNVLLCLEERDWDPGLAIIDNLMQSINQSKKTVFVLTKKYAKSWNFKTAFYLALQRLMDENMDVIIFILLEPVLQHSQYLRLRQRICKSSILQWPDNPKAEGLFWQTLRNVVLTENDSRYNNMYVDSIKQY

SMILES: Nc1ccn([C@@H]2O[C@H](COP(O)(=S)O[C@H]3[C@@H](O)[C@H](n4cnc5c(=O)[nH]c(N)nc54)O[C@@H]3COP(O)(=S)O[C@H]3[C@@H](O)[C@H](n4ccc(=O)[nH]c4=O)O[C@@H]3COCCCCCO)[C@@H](OP(O)(=S)OC[C@H]3O[C@@H](n4ccc(=O)[nH]c4=O)[C@H](O)[C@@H]3OP(O)(=S)OC[C@H]3O[C@@H](n4cnc5c(=O)[nH]c(N)nc54)[C@H](O)[C@@H]3OP(O)(=S)OC[C@H]3O[C@@H](n4ccc(N)nc4=O)[C@H](O)[C@@H]3OP(O)(=S)OC[C@H]3O[C@@H](n4ccc(=O)[nH]c4=O)[C@H](O)[C@@H]3OP(O)(=S)OC[C@H]3O[C@@H](n4ccc(=O)[nH]c4=O)[C@H](O)[C@@H]3OP(O)(=S)OC[C@H]3O[C@@H](n4cnc5c(=O)[nH]c(N)nc54)[C@H](O)[C@@H]3OP(O)(=S)OC[C@H]3O[C@@H](n4ccc(=O)[nH]c4=O)[C@H](O)[C@@H]3OP(O)(=S)OC[C@H]3O[C@@H](n4cnc5c(=O)[nH]c(N)nc54)[C@H](O)[C@@H]3OP(O)(=S)OCC(O)COP(O)(=S)O[C@H]3[C@@H](O)[C@H](n4cnc5c(=O)[nH]c(N)nc54)O[C@@H]3COP(O)(=S)O[C@H]3[C@@H](O)[C@H](n4ccc(=O)[nH]c4=O)O[C@@H]3COP(O)(=S)O[C@H]3[C@@H](O)[C@H](n4cnc5c(=O)[nH]c(N)nc54)O[C@@H]3COP(O)(=S)O[C@H]3[C@@H](O)[C@H](n4ccc(=O)[nH]c4=O)O[C@@H]3COP(O)(=S)O[C@H]3[C@@H](O)[C@H](n4ccc(=O)[nH]c4=O)O[C@@H]3COP(O)(=S)O[C@H]3[C@@H](O)[C@H](n4ccc(N)nc4=O)O[C@@H]3COP(O)(=S)O[C@H]3[C@@H](O)[C@H](n4cnc5c(=O)[nH]c(N)nc54)O[C@@H]3COP(O)(=S)O[C@H]3[C@@H](O)[C@H](n4ccc(=O)[nH]c4=O)O[C@@H]3COP(O)(=S)O[C@H]3[C@@H](O)[C@H](n4ccc(N)nc4=O)O[C@@H]3COP(O)(=S)O[C@H]3[C@@H](O)[C@H](n4cnc5c(=O)[nH]c(N)nc54)O[C@@H]3COP(O)(=S)O[C@H]3[C@@H](O)[C@H](n4ccc(=O)[nH]c4=O)O[C@@H]3COCCCCCO)[C@H]2O)c(=O)n1 (some centres undefined)
- remaining at 10 min [1]: 82%
- Activity [2]: inactive
- Activity [3]: Active

SMILES: Nc1ccn([C@@H]2O[C@H](COP(O)(=S)O[C@H]3[C@@H](O)[C@H](n4ccc(N)nc4=O)O[C@@H]3COP(O)(=S)O[C@H]3[C@@H](O)[C@H](n4cnc5c(=O)[nH]c(N)nc54)O[C@@H]3COP(O)(=S)O[C@H]3[C@@H](O)[C@H](n4ccc(=O)[nH]c4=O)O[C@@H]3COP(O)(=S)O[C@H]3[C@@H](O)[C@H](n4ccc(N)nc4=O)O[C@@H]3COP(O)(=S)O[C@H]3[C@@H](O)[C@H](n4cnc5c(=O)[nH]c(N)nc54)O[C@@H]3COP(O)(=S)O[C@H]3[C@@H](O)[C@H](n4ccc(=O)[nH]c4=O)O[C@@H]3CO)[C@@H](OP(O)(=S)OC[C@H]3O[C@@H](n4ccc(=O)[nH]c4=O)[C@H](O)[C@@H]3OP(O)(=S)OC[C@H]3O[C@@H](n4ccc(=O)[nH]c4=O)[C@H](O)[C@@H]3OP(O)(=S)OC[C@H]3O[C@@H](n4ccc(=O)[nH]c4=O)[C@H](O)[C@@H]3OP(O)(=S)OC[C@H]3O[C@@H](n4cnc5c(=O)[nH]c(N)nc54)[C@H](O)[C@@H]3OP(O)(=S)OCC(O)COP(O)(=S)O[C@H]3[C@@H](O)[C@H](n4cnc5c(=O)[nH]c(N)nc54)O[C@@H]3COP(O)(=S)O[C@H]3[C@@H](O)[C@H](n4ccc(=O)[nH]c4=O)O[C@@H]3COP(O)(=S)O[C@H]3[C@@H](O)[C@H](n4ccc(=O)[nH]c4=O)O[C@@H]3COP(O)(=S)O[C@H]3[C@@H](O)[C@H](n4ccc(=O)[nH]c4=O)O[C@@H]3COP(O)(=S)O[C@H]3[C@@H](O)[C@H](n4ccc(N)nc4=O)O[C@@H]3COP(O)(=S)O[C@H]3[C@@H](O)[C@H](n4ccc(N)nc4=O)O[C@@H]3COP(O)(=S)O[C@H]3[C@@H](O)[C@H](n4cnc5c(=O)[nH]c(N)nc54)O[C@@H]3COP(O)(=S)O[C@H]3[C@@H](O)[C@H](n4ccc(=O)[nH]c4=O)O[C@@H]3COP(O)(=S)O[C@H]3[C@@H](O)[C@H](n4ccc(N)nc4=O)O[C@@H]3COP(O)(=S)O[C@H]3[C@@H](O)[C@H](n4cnc5c(=O)[nH]c(N)nc54)O[C@@H]3COP(O)(=S)O[C@H]3[C@@H](O)[C@H](n4ccc(=O)[nH]c4=O)O[C@@H]3CO)[C@H]2O)c(=O)n1 (some centres undefined)
- remaining at 10 min [1]: 66%
- Activity [2]: inactive
- Activity [3]: Active

SMILES: Nc1nc2c(ncn2[C@@H]2O[C@H](COP(O)(=S)O[C@H]3[C@@H](O)[C@H](n4ccc(=O)[nH]c4=O)O[C@@H]3COP(O)(=S)O[C@H]3[C@@H](O)[C@H](n4ccc(=O)[nH]c4=O)O[C@@H]3COP(O)(=S)O[C@H]3[C@@H](O)[C@H](n4ccc(=O)[nH]c4=O)O[C@@H]3COP(O)(=S)O[C@H]3[C@@H](O)[C@H](n4cnc5c(=O)[nH]c(N)nc54)O[C@@H]3COP(O)(=S)O[C@H]3[C@@H](O)[C@H](n4ccc(=O)[nH]c4=O)O[C@@H]3COP(O)(=S)O[C@H]3[C@@H](O)[C@H](n4ccc(=O)[nH]c4=O)O[C@@H]3COP(O)(=S)O[C@H]3[C@@H](O)[C@H](n4cnc5c(=O)[nH]c(N)nc54)O[C@@H]3COP(O)(=S)O[C@H]3[C@@H](O)[C@H](n4cnc5c(=O)[nH]c(N)nc54)O[C@@H]3COP(O)(=S)O[C@H]3[C@@H](O)[C@H](n4ccc(=O)[nH]c4=O)O[C@@H]3COP(O)(=S)O[C@H]3[C@@H](O)[C@H](n4ccc(=O)[nH]c4=O)O[C@@H]3CO)[C@@H](OP(O)(=S)OCC(O)COP(O)(=S)O[C@H]3[C@@H](O)[C@H](n4cnc5c(=O)[nH]c(N)nc54)O[C@@H]3COP(O)(=S)O[C@H]3[C@@H](O)[C@H](n4ccc(=O)[nH]c4=O)O[C@@H]3COP(O)(=S)O[C@H]3[C@@H](O)[C@H](n4ccc(=O)[nH]c4=O)O[C@@H]3COP(O)(=S)O[C@H]3[C@@H](O)[C@H](n4ccc(=O)[nH]c4=O)O[C@@H]3COP(O)(=S)O[C@H]3[C@@H](O)[C@H](n4cnc5c(=O)[nH]c(N)nc54)O[C@@H]3COP(O)(=S)O[C@H]3[C@@H](O)[C@H](n4ccc(=O)[nH]c4=O)O[C@@H]3COP(O)(=S)O[C@H]3[C@@H](O)[C@H](n4ccc(=O)[nH]c4=O)O[C@@H]3COP(O)(=S)O[C@H]3[C@@H](O)[C@H](n4cnc5c(=O)[nH]c(N)nc54)O[C@@H]3COP(O)(=S)O[C@H]3[C@@H](O)[C@H](n4cnc5c(=O)[nH]c(N)nc54)O[C@@H]3COP(O)(=S)O[C@H]3[C@@H](O)[C@H](n4ccc(=O)[nH]c4=O)O[C@@H]3COP(O)(=S)O[C@H]3[C@@H](O)[C@H](n4ccc(=O)[nH]c4=O)O[C@@H]3CO)[C@H]2O)c(=O)[nH]1 (some centres undefined)
- remaining at 10 min [1]: 94%
- Activity [2]: inactive
- Activity [3]: Active
